Reference: publication PMC11152041, “Tricarbonyl rhenium(I) complexes with 8-hydroxyquinolines: structural, chemical, antibacterial, and anticancer characteristics” (RSC Advances, 2024)

Test system: HL-60 cells
Test: MTT cytotoxicity assay
Format: cell-based, human
Details: HL-60, 24 h, MTT; read-out: IC50 ± SD
Protocol: (§1) The cytotoxicities for studied compounds were evaluated against leukemia cells (HL-60), as well as ovarian (SKOV-3), prostate (PC-3), and breast (MCF-7) cancer cell lines. The potential selectivity of these compounds towards cancer cells was assessed by determination of their cytotoxicities towards breast non-cancerous cells (MCF-10A). For comparison, cisplatin was added to the cytotoxicity assays.
(§2) Bacterial strains and cell lines were obtained from the American Type Culture Collection (ATCC).[59] […] Antimicrobial activity was tested in Müeller Hinton (MH) II broth (Becton Dickinson). For anticancer activity assay, the following reagents from Merk were used: 3-(4,5-dimethylthiazol-2-yl)-2,5-diphenyltetrazolium bromide (MTT), sodium dodecyl sulfate (SDS) and HCl. The solubilized formazan product was spectrophotometrically quantified in a Power Wave XS (Bio Tek, Winooski, VT, USA) microplate reader. The HL-60 and PC-3 cells were grown in RPMI-1640 medium with stable glutamine (Biowest) supplemented with 10% (v/v) of heat-inactivated fetal bovine serum (FBS, Biowest) and 1% (v/v) of antibiotic–antimycotic solution (Biowest). The SKOV-3 cells were grown in McCoy's 5A medium with L-glutamine (Biowest) supplemented with 10% (v/v) heat-inactivated FBS, and 1% (v/v) antibiotic–antimycotic solution. The MCF-7 cells were grown in Eagle's MEM (Minimal Essential Medium) medium with stable glutamine (Biowest), supplemented with 10% (v/v) heat-inactivated FBS 1% (v/v) MEM non-essential amino acids (Biowest), 1% (v/v) antibiotic–antimycotic solution, and 1 mM sodium pyruvate (Merck). The MCF-10A cells were grown in Ham's F-12K (Kaighn's) Medium with stable glutamine (Gibco) supplemented with 5% (v/v) heat-inactivated FBS, 1% (v/v) MEM non-essential amino acids, 1% (v/v) antibiotic–antimycotic solution, 5 μg mL^−1 insulin, 0.04 μg mL^−1 hydrocortisone (Merck), and 15 ng mL^−1 human Epidermal Growth Factor (hEGF, PeproTech).
(§3) The cells were cultured in 96-well plates and incubated with the tested compound for 24 h and 48 h. All experiments were performed in exponentially growing cultures. The 0.03 M solutions of the compounds in DMSO were appropriately diluted using culture media. The maximal final concentration of DMSO in each well was 0.1%. The cytotoxicity of the compounds was measured by determining cell viability with a colorimetric test based on 3-(4,5-dimethylthiazol-2-yl)-2,5-diphenyltetrazolium bromide (MTT). MTT stock solution was added to each well to a final concentration of 0.5 mg mL^−1 and incubated for 4 h at 37 °C; following formazan crystals were dissolved by the addition of sodium dodecyl sulfate (SDS) solution (10% SDS in 0.001 M HCl). MTT and SDS were added directly to the cell culture. The compound's IC50 values (concentration required to reduce the viability of cells by 50% compared with the control cells) were calculated from the data obtained with the MTT assay.

SMILES | IC50
Cc1cc(C)[nH]n1.Clc1ccc([O][Re])c2ncccc12.[C-]#[O+].[C-]#[O+].[C-]#[O+] [complex 11, [Re(CO)3(ClQ)Hdmpz]] | 5 ± 1 µM

Same assay, conditions: HL-60, 48 h, MTT; read-out: IC50 ± SD

SMILES | IC50
Cc1cc(C)[nH]n1.Clc1ccc([O][Re])c2ncccc12.[C-]#[O+].[C-]#[O+].[C-]#[O+] [complex 11, [Re(CO)3(ClQ)Hdmpz]] | 2.8 ± 0.4 µM

Test system: SKOV-3 cells
Test: MTT cytotoxicity assay
Format: cell-based, human
Details: SKOV-3, 24 h, MTT; read-out: IC50 ± SD
Protocol: as §1, §2, §3

SMILES | IC50
Cc1cc(C)[nH]n1.Clc1ccc([O][Re])c2ncccc12.[C-]#[O+].[C-]#[O+].[C-]#[O+] [complex 11, [Re(CO)3(ClQ)Hdmpz]] | 40 ± 6 µM

Same assay, conditions: SKOV-3, 48 h, MTT; read-out: IC50 ± SD

SMILES | IC50
Cc1cc(C)[nH]n1.Clc1ccc([O][Re])c2ncccc12.[C-]#[O+].[C-]#[O+].[C-]#[O+] [complex 11, [Re(CO)3(ClQ)Hdmpz]] | 32 ± 7 µM

Test system: PC-3 cells
Test: MTT cytotoxicity assay
Format: cell-based, human
Details: PC-3, 24 h, MTT; read-out: IC50 ± SD
Protocol: as §1, §2, §3

SMILES | IC50
Cc1cc(C)[nH]n1.Clc1ccc([O][Re])c2ncccc12.[C-]#[O+].[C-]#[O+].[C-]#[O+] [complex 11, [Re(CO)3(ClQ)Hdmpz]] | 18 ± 1 µM

Same assay, conditions: PC-3, 48 h, MTT; read-out: IC50 ± SD

SMILES | IC50
Cc1cc(C)[nH]n1.Clc1ccc([O][Re])c2ncccc12.[C-]#[O+].[C-]#[O+].[C-]#[O+] [complex 11, [Re(CO)3(ClQ)Hdmpz]] | 24 ± 4 µM

Test system: MCF-7 cells
Test: MTT cytotoxicity assay
Format: cell-based, human
Details: MCF-7, 24 h, MTT; read-out: IC50 ± SD
Protocol: as §1, §2, §3

SMILES | IC50
Cc1cc(C)[nH]n1.Clc1ccc([O][Re])c2ncccc12.[C-]#[O+].[C-]#[O+].[C-]#[O+] [complex 11, [Re(CO)3(ClQ)Hdmpz]] | 18 ± 5 µM

Same assay, conditions: MCF-7, 48 h, MTT; read-out: IC50 ± SD

SMILES | IC50
Cc1cc(C)[nH]n1.Clc1ccc([O][Re])c2ncccc12.[C-]#[O+].[C-]#[O+].[C-]#[O+] [complex 11, [Re(CO)3(ClQ)Hdmpz]] | 25 ± 3 µM

Test system: P. aeruginosa ATCC27853
Test: Broth microdilution MIC/MBC (ISO 20776-1)
Format: cell-based, Pseudomonas aeruginosa
Details: P. aeruginosa ATCC27853, >99.99% reduction of growth
Protocol: as §2
(§4) The in vitro antibacterial activity was determined according to ISO 20776-1.[88] Among the tested microorganisms were Gram-negative rods, E. coli ATCC25922 and P. aeruginosa ATCC27853, and Gram-positive cocci, S. aureus ATCC29213 and E. faecalis ATCC29212. The selected bacterial species represented the most common etiologic agents of human infections and are used for quality control of antimicrobial susceptibility testing.[89] The test procedure included the determination of MICs and MBCs of complexes and their free ligands. MIC and MBC determinations of ciprofloxacin, as the reference antibiotic, were also performed. All compounds were dissolved in DMSO to reach the maximum 512 mg L^−1 concentration. […] The assay consisted of preparing 2-fold dilutions of the substances in a liquid growth medium MH II and inoculating them with a standardized suspension of microorganisms at a McFarland density of 0.5 (≈10^8 CFU mL^−1). The culture plates were incubated at 35 °C for 24 h. The lowest concentration of the compound inhibiting visible bacterial growth was specified as MIC, and the concentration that reduced bacterial growth by >99.99% after counting live bacteria on the plates compared to the positive control was defined as MBC.

SMILES | MBC
Cc1cc(C)[nH]n1.Clc1ccc([O][Re])c2ncccc12.[C-]#[O+].[C-]#[O+].[C-]#[O+] [complex 11, [Re(CO)3(ClQ)Hdmpz]] | >512/>512 mg L^−1

Same assay, conditions: P. aeruginosa ATCC27853, MH II broth, 35 °C, 24 h

SMILES | MIC
Cc1cc(C)[nH]n1.Clc1ccc([O][Re])c2ncccc12.[C-]#[O+].[C-]#[O+].[C-]#[O+] [complex 11, [Re(CO)3(ClQ)Hdmpz]] | >512/>512 mg L^−1

Test system: E. coli ATCC25922
Test: Broth microdilution MIC/MBC (ISO 20776-1)
Format: cell-based, Escherichia coli
Details: E. coli ATCC25922, >99.99% reduction of growth
Protocol: as §2, §4

SMILES | MBC
Cc1cc(C)[nH]n1.Clc1ccc([O][Re])c2ncccc12.[C-]#[O+].[C-]#[O+].[C-]#[O+] [complex 11, [Re(CO)3(ClQ)Hdmpz]] | 512/>512 mg L^−1

Same assay, conditions: E. coli ATCC25922, MH II broth, 35 °C, 24 h

SMILES | MIC
Cc1cc(C)[nH]n1.Clc1ccc([O][Re])c2ncccc12.[C-]#[O+].[C-]#[O+].[C-]#[O+] [complex 11, [Re(CO)3(ClQ)Hdmpz]] | 512/>512 mg L^−1

Test system: E. faecalis ATCC29212
Test: Broth microdilution MIC/MBC (ISO 20776-1)
Format: cell-based, Enterococcus faecalis
Details: E. faecalis ATCC29212, >99.99% reduction of growth
Protocol: as §2, §4

SMILES | MBC
Cc1cc(C)[nH]n1.Clc1ccc([O][Re])c2ncccc12.[C-]#[O+].[C-]#[O+].[C-]#[O+] [complex 11, [Re(CO)3(ClQ)Hdmpz]] | 64/64 mg L^−1

Same assay, conditions: E. faecalis ATCC29212, MH II broth, 35 °C, 24 h

SMILES | MIC
Cc1cc(C)[nH]n1.Clc1ccc([O][Re])c2ncccc12.[C-]#[O+].[C-]#[O+].[C-]#[O+] [complex 11, [Re(CO)3(ClQ)Hdmpz]] | 64/64 mg L^−1

Test system: MCF-10A cells
Test: MTT cytotoxicity assay
Details: read-out: IC50 ± SD; MCF-10A (non-cancerous), 24 h, MTT; * precipitation of the complex
Protocol: as §1, §2, §3

SMILES | IC50
Cc1cc(C)[nH]n1.Clc1ccc([O][Re])c2ncccc12.[C-]#[O+].[C-]#[O+].[C-]#[O+] [complex 11, [Re(CO)3(ClQ)Hdmpz]] | 24 ± 3 µM

Same assay, conditions: read-out: IC50 ± SD; MCF-10A (non-cancerous), 48 h, MTT; * precipitation of the complex

SMILES | IC50
Cc1cc(C)[nH]n1.Clc1ccc([O][Re])c2ncccc12.[C-]#[O+].[C-]#[O+].[C-]#[O+] [complex 11, [Re(CO)3(ClQ)Hdmpz]] | 10 ± 1 µM

Test system: S. aureus ATCC29213
Test: Broth microdilution MIC/MBC (ISO 20776-1)
Format: cell-based, Staphylococcus aureus
Details: S. aureus ATCC29213, >99.99% reduction of growth
Protocol: as §2, §4

SMILES | MBC
Cc1cc(C)[nH]n1.Clc1ccc([O][Re])c2ncccc12.[C-]#[O+].[C-]#[O+].[C-]#[O+] [complex 11, [Re(CO)3(ClQ)Hdmpz]] | 256 µg/mL

Same assay, conditions: S. aureus ATCC29213, MH II broth, 35 °C, 24 h

SMILES | MIC
Cc1cc(C)[nH]n1.Clc1ccc([O][Re])c2ncccc12.[C-]#[O+].[C-]#[O+].[C-]#[O+] [complex 11, [Re(CO)3(ClQ)Hdmpz]] | 64 µg/mL
